Measured values: PMC8472287, “Betulinic Acid Decorated with Polar Groups and Blue Emitting BODIPY Dye: Synthesis, Cytotoxicity, Cell-Cycle Analysis and Anti-HIV Profiling” (Biomedicines, 2021)

How the values were obtained:
U2OS-Nuc cell line = experiment: Live cell imaging, pilot experiment; type: cell-based, human; details: 10 µM, 1 h incubation
Experimental: (§1) U2OS cell line (ATCC, USA) was transduced with premade lentiviral particles (Vectalis-TaKaRa, Japan) with sequences that express fluorescent protein tag mCherry targeted to specific subcellular locations. All cell lines were prepared according to the vendor’s instructions. The U2OS-Nuc cell line was prepared by using rLV.EF1.mCherry-Nuc-9 (cat. n. 0023VCT), containing a NLS sequence that imports protein into the nucleus. The U2OS-ER cell line was transduced by rLV.EF1.mCherry-ER-9 (cat. n. 0025VCT), which contains a calreticulin signal sequence and a KDEL sequence that associates protein with the endoplasmic reticulum. The U2OS-GA cell line was transduced by rLV.EF1.mCherry-Golgi-9 (cat. n. 0022VCT), containing a human GT precursor, a protein localized in Golgi Apparatus. The U2OS-Mito cell line was prepared by using rLV.EF1.mCherry-Mito-9 (cat. n. 0024VCT), containing a mitochondrial targeting sequence.
(§2) U2OS cells with fluorescent fusion proteins (density 1.0 × 10^3 per well) were seeded into 384 CellCarrier plates (Perkin Elmer, Waltham, MA, USA) and pre-incubated for 24 h at 37 °C and 5% CO2. The attached cells were treated with tested compounds in concentration 10 µM for 1 h and subsequently rinsed with fresh media. The live-cell imaging was performed by Cell Voyager CV7000 (Yokogawa, Tokyo, Japan) spinning disc confocal microscopy system at 37 °C in a 5% CO2 atmosphere. Live cells were monitored by a 60 × water immersion objective. The fluorescent signal was excited by lasers (405 nm and 561 nm) and the emission was filtered by bandpass filters (BP 445/45 and BP 595/20). All images were post-processed, and Pearson’s and Mander’s coefficients were calculated using the JACoP plugin in Image-J software.

[1] = test system: U2OS-ER, U2OS-Mito and U2OS-GA cell lines; experiment: Live cell colocalization experiments; type: cell-based, human; details: 10 µM, 1 h, Mander's coefficient
Experimental: as §1, §2

CCRF-CEM = experiment: MTS cytotoxicity assay, CCRF-CEM; type: cell-based; details: Homo sapiens, 72 h, 3-day incubation
Source text: (§3) All cells (if not indicated otherwise) were purchased from the American Tissue Culture Collection (ATCC; Manassas, VA, USA). The highly chemosensitive CCRF-CEM line is derived from T lymphoblastic leukaemia, K562 represent cells of chronic myelogenous leukaemia. Colorectal adenocarcinoma HCT116 cell line and its p53 gene knockout counterpart (HCT116p53−/−, Horizon Discovery Ltd., Cambridge, UK) were used as models to assess the impact of p53 deficiency on cell line sensitivity. A549 cells are derived from lung adenocarcinoma and U2OS from human osteosarcoma. CEM-DNR and K562-Tax are well-characterized daunorubicin and paclitaxel-resistant sublines of CCRF-CEM and K562. The CEM-DNR resistant cells overexpress the P-glycoprotein and LRP protein, the K562-Tax overexpress P-glycoprotein but is losing the expression of LRP, which is present at parental K562 cell line. P-glycoprotein belongs to the ABC transporters’ family and is involved in the primary and acquired multidrug resistance phenomenon by the efflux of toxic compounds, LRP protein is involved in the lysosomal degradation. MRC-5 and BJ cell lines were used as a non-tumour control and represent human fibroblasts. The cells were maintained in Nunc/Corning 80 cm^2 plastic tissue culture flasks and cultured in cell culture medium according to ATCC or Horizon recommendations (DMEM/RPMI 1640 with 5 g/L-glucose, 2 mM glutamine, 100 U/mL penicillin, […] streptomycin, 10% fetal calf serum, and NaHCO3).
(§4) To perform the cytotoxicity MTS assay, cell suspensions were prepared and diluted according to the cell type and the expected target cell density (25,000–35,000 cells/mL) based on cell growth characteristics. Cells were added by an automatic pipettor (30 μL) into 384 well microtiter plates. All tested compounds were dissolved in 100% DMSO and four-fold dilutions of the intended test concentration were added in 0.15 μL aliquots at time zero to the microtiter plate wells by the echo-acoustic liquid handler Echo550 (Labcyte, San Jose, CA, USA). The experiments were performed in technical duplicates and at least three biological replicates. The cells were incubated with the tested compounds for 72 h at 37 °C, in a 5% CO2 atmosphere at 99% humidity. At the end of the incubation period, the cells were assayed by using the MTS test. Aliquots (5 µL) of the MTS stock solution were pipetted into each well and incubated for an additional 1–4 h. After this incubation period, the optical density (OD) was measured at 490 nm with an Envision microplate reader (Perkin Elmer, Waltham, Massachusetts, USA). Tumour cell survival (TCS) was calculated using the following equation: TCS = (ODdrug-exposed well/mean ODcontrol wells) × 100%.

CEM-DNR = experiment: MTS cytotoxicity assay, CEM-DNR; type: cell-based; details: Homo sapiens, 72 h, CEM-DNR (daunorubicin resistant), 3-day incubation
Source text: as §3, §4

K562 = experiment: MTS cytotoxicity assay, K562; type: cell-based; details: Homo sapiens, 72 h, 3-day incubation
Source text: as §3, §4

K562-Tax = experiment: MTS cytotoxicity assay, K562-Tax; type: cell-based; details: Homo sapiens, 72 h, K562-Tax (paclitaxel-resistant), 3-day incubation
Source text: as §3, §4

A549 = experiment: MTS cytotoxicity assay, A549; type: cell-based; details: Homo sapiens, 72 h, 3-day incubation
Source text: as §3, §4

HCT116 = experiment: MTS cytotoxicity assay, HCT116; type: cell-based; details: Homo sapiens, HCT-116, 72 h, 3-day incubation
Source text: as §3, §4

HCT116p53−/− = experiment: MTS cytotoxicity assay, HCT116p53−/−; type: cell-based; details: Homo sapiens, HCT116-p53-null, 72 h, HCT116p53−/− (null p53 gene), 3-day incubation
Source text: as §3, §4

U2OS = experiment: MTS cytotoxicity assay, U2OS; type: cell-based; details: Homo sapiens, 72 h, 3-day incubation
Source text: as §3, §4

MRC-5 = experiment: MTS cytotoxicity assay, MRC-5; type: cell-based; details: Homo sapiens, MRC5, 72 h, MRC-5 normal fibroblasts, 3-day incubation
Source text: as §3, §4

BJ = experiment: MTS cytotoxicity assay, BJ; type: cell-based; details: Homo sapiens, 72 h, BJ normal fibroblasts, 3-day incubation
Source text: as §3, §4

CCRF-CEM lymphoblasts [2] = experiment: Cell cycle and apoptosis analysis (flow cytometry, propidium iodide); type: cell-based, human; details: 5 × IC50
Experimental: (§5) CCRF-CEM cells were seeded in 6-well plates at a density of 1 × 10^6/well. […] Cells were then harvested, washed with cold 1 × PBS and fixed in ice-cold 70% ethanol. Fixed cells were incubated overnight at −20 °C, washed in hypotonic citrate buffer, treated with RNase (50 μg mL^−1) and incubated with propidium iodide for 15 min. DNA content was analysed using Becton Dickinson flow cytometer and cell cycle data were analysed in the program ModFitLT (Verity, Carrollton, TX, USA). Apoptosis was measured in a logarithmic model expressing the percentage of the particles with propidium content lower than cells in G0/G1 phase (<G1) of the cell cycle. The mitotic marker pH3Ser10 antibody (Sigma) and secondary anti-mouse-FITC antibody (Sigma) were used for labelling and subsequent flow cytometry analysis of ethanol-fixed CCRF-CEM cells.

CCRF-CEM lymphoblasts [3] = experiment: Mitotic marker pH3Ser10 flow cytometry; type: cell-based, human; details: 5 × IC50
Experimental: as §5

CCRF-CEM lymphoblasts [4] = experiment: BrDU incorporation analysis (DNA synthesis); type: cell-based, human; details: 24 h incubation
Experimental: Cells were cultivated as in the method above and pulse-labelled with 10 μM 5-bromo-2-deoxyuridine (BrDU) for 30 min before collection to the test tubes. The cells were washed with cold 1 × PBS and fixed in ice-cold 70% ethanol. Before analysis, they were washed with 1 × PBS and incubated in 2M HCl for 30 min at room temperature. Following neutralization with 0.1M Na2B4O7 (borax), the cells were washed with 0.5% Tween-20 and 1% BSA in 1 × PBS. The cell pellets were stained using a primary anti-BrdU antibody (Exbio, Vestec, Czech Republic) for 30 min at room temperature and a secondary anti-mouse-FITC antibody (Sigma). The samples were then incubated with propidium iodide (0.1 mg mL^−1), treated with RNase A (0.5 mg mL^−1) for 1 h at room temperature in the dark and analysed as above.

CCRF-CEM lymphoblasts [5] = experiment: BrU incorporation analysis (RNA synthesis); type: cell-based, human; details: 24 h, 5 × IC50 (high concentration)
[6] = test system: VSV-G pseudotyped HIV-1 particles; experiment: microbe, parasite or virus in culture; type: cell-based; details: Human immunodeficiency virus 1, HEK293, 48 h, read-out: IC50i (50% infection inhibition)
[7] = test system: CA-SP1 processing of HIV-1 Gag polyprotein; experiment: Western blot of released virions with anti-HIV-1 CA antibody; type: cell-based
in vitro = details: human

Row | SMILES | detection in living cells (U2OS-Nuc cell line) | colocalization with cellular structures [1] | IC50 (CCRF-CEM) [µM] | IC50 (CEM-DNR) [µM] | IC50 (K562) [µM] | IC50 (K562-Tax) [µM] | IC50 (A549) [µM] | IC50 (HCT116) [µM] | IC50 (HCT116p53−/−) [µM] | IC50 (U2OS) [µM] | IC50 (MRC-5) [µM] | IC50 (BJ) [µM] | increase of the percentage of cells in the S-phase compared to untreated control (CCRF-CEM lymphoblasts [2]) | rate of cell division by mitotic marker pH3Ser10 (in words) (CCRF-CEM lymphoblasts [3]) | fraction of proliferating BrDU positive CCRF-CEM cells (in words) (CCRF-CEM lymphoblasts [4]) | RNA synthesis by BrU (in words) (CCRF-CEM lymphoblasts [5]) | IC50 [6] [µM] | CA forms identified in released viruses (CA-SP1 processing) [7] | cytotoxic effect in the cell line panel (in words) (entire cell line panel) | IC50 (in vitro) [µM]
1 | CSC1=C2C=CC=[N+]2[B-](F)(F)n2cccc21 [BODIPY-SMe, 8-thiomethyl BODIPY, reference compound] | penetrate cell compartments | perfect colocalization in all studied cell lines | – | – | – | – | – | – | – | – | – | – | – | – | – | – | – | – | – | –
2 | C=C(C)[C@@H]1CC[C@]2(C(=O)NCCCN=[N+]=[N-])CC[C@]3(C)[C@H](CC[C@@H]4[C@@]5(C)CC[C@H](OC(=O)CC(C)(C)C(=O)O)C(C)(C)[C@@H]5CC[C@]43C)[C@@H]12 [Compound 2, 4-{[(3β)-28-[(3-Azidopropyl)amino]-28-oxolup-20(29)-ene-3-yl]oxy}-2,2-dimethyl-4-oxo-butanoic acid] | – | – | 8.14 | 10.2 | 26 | 15.9 | 22.9 | 19.4 | 29.2 | 22.2 | 24.2 | 25.3 | about 50% | low rate of cell division | increased the percentage of cells incorporating BrDU | stalled RNA synthesis | 11.7 | not only fully processed p24 CA, but also p25 CA-SP1 protein | medium cytotoxicity | 36.4
3 | C=C(C)[C@@H]1CC[C@]2(C(=O)NCCCNC3=C4C=CC=[N+]4[B-](F)(F)n4cccc43)CC[C@]3(C)[C@H](CC[C@@H]4[C@@]5(C)CC[C@H](O)C(C)(C)[C@@H]5CC[C@]43C)[C@@H]12 [Compound 4, (3β)-N-[N’-(4,4-Difluoro-4-bora-3a,4a-diaza-s-indacene-8-yl)-3-aminopropyl]-3-hydroxylup-20(29)-ene-28-amide] | detected in living cells | almost perfectly label mitochondria and endoplasmic reticulum | 23.7 | > 50 | > 50 | > 50 | > 50 | > 50 | > 50 | > 50 | > 50 | > 50 | – | – | – | – | 44.1 | Only completely processed p24 CA | inactive | > 40
4 | C=C(C)[C@@H]1CC[C@]2(C(=O)NCCCN)CC[C@]3(C)[C@H](CC[C@@H]4[C@@]5(C)CC[C@H](OC(=O)CCNC6=C7C=CC=[N+]7[B-](F)(F)n7cccc76)C(C)(C)[C@@H]5CC[C@]43C)[C@@H]12 [Compound 6, (3β)-N-(3-Aminopropyl)-3-[N´-(4,4-difluoro-4-bora-3a,4a-diaza-s-indacene-8-yl)-β-alanyl]-oxy-lup-20(29)-ene-28-amide] | detected in living cells | almost perfectly label mitochondria and endoplasmic reticulum | 1.55 | 11.5 | 5.25 | 31.8 | 6.65 | 3.85 | 3.39 | 5 | 8.07 | 8.37 | – | low rate of cell division | reduced the fraction of proliferating BrDU positive CCRF-CEM cells | – | – | – | high cytotoxicity | 12
5 | C=C(C)[C@@H]1CC[C@]2(C(=O)N3CCN(CCNC(=O)OC(C)(C)C)CC3)CC[C@]3(C)[C@H](CC[C@@H]4[C@@]5(C)CC[C@H](OC(C)=O)C(C)(C)[C@@H]5CC[C@]43C)[C@@H]12 [Compound 12, (3β)-28-(4-{2-[(Tert-butoxycarbonyl)amino]ethyl}piperazine-1-yl)-28-oxolup-20(29)-ene-3-yl acetate] | – | – | 9.62 | > 50 | > 50 | > 50 | > 50 | > 50 | > 50 | > 50 | > 50 | > 50 | about 50% | low rate of cell division | increased the percentage of cells incorporating BrDU | – | 31.9 | Only completely processed p24 CA | inactive | > 40
